Source: PubChem BioAssay AID1963979 (Molecular Pharmacology Branch, DTP, NCI, 2024)
pIC50: −log10 of the molar value.

Tested on: 361931-004-R-J1-PDC multicell spheroid viability
Experiment: Anticancer human tumor 361931-004-R-J1-PDC patient-derived colon adenocarcinoma cell line growth inhibition [PI3K]
Conditions: for pIC50: curve of first compound; for viability, T/C: stronger effect = lower value
From the text: Combinatorial screen of targeted agents with the PI3K inhibitors inavolisib, alpelisib, duvelisib, and copanlisib in multi-cell type tumor spheroids
A high-throughput screen of multi-cell type tumor spheroids was designed to identify active combinations of targeted small molecules and PI3K pathway inhibitors. Complex spheroids include a stromal component modeled by human endothelial cells (HUVEC) and fibroblasts modeled by human mesenchymal stem cells (MSCs). The concentration ranges selected for each drug and investigational agent were based upon clinically achievable concentrations if the clinical Cmax of the agent was known.
Compounds. The drugs and investigational agents: inavolisib (NSC800729), alpelisib (NSC765974), duvelisib (NSC772469), copanlisib (NSC816437), ipatasertib (NSC767898), afuresertib (NSC778305), talazoparib (NSC767125), sapanisertib (NSC764658), selumetinib (NSC741078), tovorafenib (DAY101, NSC766906), vemurafenib (NSC761431), ravoxertinib (NSC781343), sotorasib (NSC818433), MRTX1133 (NSC 836407), abemaciclib (NSC 768073), palbociclib (NSC758247), venetoclax (NSC 766270), SY5609 (NSC837396), enzalutamide (NSC755605), and darolutamide (NSC825331), were obtained from the National Cancer Institute (NCI) Developmental Therapeutics Program Chemical Repository. The FDA-approved anticancer drug set is available from the NCI Developmental Therapeutics Program. […] The stock solutions were prepared in dimethyl sulfoxide (DMSO, Sigma-Aldrich, St. Louis, MO, cat. D2650) at 800-fold the tested concentration and stored at -70 degrees C prior to their use. All drugs and investigational agents were tested over a range starting from a high concentration at or near the clinical Cmax and decreasing in half-log increments. If the clinical Cmax for an agent had not been determined, the highest concentration tested was 10 microM.
Cell Culture. All cells were maintained in an incubator at 37 degrees C and 5% CO2 with 95% humidity. The PDC lines were cultured according to standard operating procedures established by the NCI PDMR (https://pdmr.cancer.gov/sops/default.htm). All PDCs were thawed and cultured in Matrigel-coated flasks prepared with a working solution of 1X Ham's F-12 nutrient mix, without supplementation (Invitrogen, Waltham, MA, cat. 11765054), 100 U/mL penicillin-streptomycin (Invitrogen, cat. 15140122), and 2.5% Matrigel (Corning Inc., Corning, NY, cat. 354248) for the first three passages. The 354836-022-R-J1-PDC, 475296-252-R-J1-PDC, and 997726-040-R-J2-PDC lines were cultured in 6A media, which includes advanced DMEM/F-12 (Thermo Fisher Scientific, cat. 12634028), 10 mM HEPES (Thermo Fisher Scientific, cat. 15630080), 1X GlutaMAX supplement (Thermo Fisher Scientific, cat. 35050061), 0.1 mg/mL primocin (InvivoGen, San Diego, CA, cat. ant-pm-2), 10% defined fetal bovine serum, heat inactivated (HyClone Laboratories Inc., Logan, UT, cat. SH30070.03HI), 50% L-WRN conditioned media (ATCC, cat. CRL-3276), 1.25 mM N-Acetyl-L-cysteine (Sigma-Aldrich, cat. A9165), 10 mM nicotinamide (Sigma-Aldrich, cat. N0636), 1X B-27 supplement (Thermo Fisher Scientific, cat. 17504044), 1X N-2 supplement (Thermo Fisher Scientific, cat. 17502048), and 10 microM Y-27632 dihydrochloride (Tocris Bioscience, Bristol, United Kingdom, cat. 1254). The 624824-186-R-J2-PDC line was cultured in 6C/Colon 1B media, which includes all 6A media components plus 50 ng/mL human EGF recombinant protein (Thermo Fisher Scientific, cat. PHG0311). […]

[1] = second compound 0.00316 µM, first compound 0.0316 µM
[2] = second compound 0.00316 µM, first compound 0.1 µM
[3] = second compound 0.00316 µM, first compound 0.316 µM
[4] = second compound 0.00316 µM, first compound 1 µM
[5] = second compound 0.00316 µM, first compound 3.16 µM
[6] = second compound 0.00316 µM, first compound 10 µM
[7] = second compound 0.01 µM, first compound 0.0316 µM
[8] = second compound 0.01 µM, first compound 0.1 µM
[9] = second compound 0.01 µM, first compound 0.316 µM
[10] = second compound 0.01 µM, first compound 1 µM
[11] = second compound 0.01 µM, first compound 3.16 µM
[12] = second compound 0.01 µM, first compound 10 µM
[13] = second compound 0.0316 µM, first compound 0.0316 µM
[14] = second compound 0.0316 µM, first compound 0.1 µM
[15] = second compound 0.0316 µM, first compound 0.316 µM
[16] = second compound 0.0316 µM, first compound 1 µM
[17] = second compound 0.0316 µM, first compound 3.16 µM
[18] = second compound 0.0316 µM, first compound 10 µM
[19] = second compound 0.1 µM, first compound 0.0316 µM
[20] = second compound 0.1 µM, first compound 0.1 µM
[21] = second compound 0.1 µM, first compound 0.316 µM
[22] = second compound 0.1 µM, first compound 1 µM
[23] = second compound 0.1 µM, first compound 3.16 µM
[24] = second compound 0.1 µM, first compound 10 µM
[25] = second compound 0.316 µM, first compound 0.0316 µM
[26] = second compound 0.316 µM, first compound 0.1 µM
[27] = second compound 0.316 µM, first compound 0.316 µM
[28] = second compound 0.316 µM, first compound 1 µM
[29] = second compound 0.316 µM, first compound 3.16 µM
[30] = second compound 0.316 µM, first compound 10 µM
[31] = second compound 1 µM, first compound 0.0316 µM
[32] = second compound 1 µM, first compound 0.1 µM
[33] = second compound 1 µM, first compound 0.316 µM
[34] = second compound 1 µM, first compound 1 µM
[35] = second compound 1 µM, first compound 3.16 µM
[36] = second compound 1 µM, first compound 10 µM
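Also: spheroids exposed to agents for seven days before readout.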

CC1(C)CCC(CN2CCN(c3ccc(C(=O)NS(=O)(=O)c4ccc(NCC5CCOCC5)c([N+](=O)[O-])c4)c(Oc4cnc5[nH]ccc5c4)c3)CC2)=C(c2ccc(Cl)cc2)C1 + CC(Nc1ccc2c(c1)OCCn1cc(N3C(=O)OCC3C(F)F)nc1-2)C(N)=O
pIC50 (second compound 0.00316 µM): 5.38
pIC50 (second compound 0.01 µM): 5.37
pIC50 (second compound 0.0316 µM): 5.39
pIC50 (second compound 0.1 µM): 5.41
pIC50 (second compound 0.316 µM): 5.47
pIC50 (second compound 1 µM): 5.48
viability, T/C [1]: 104%
viability, T/C [2]: 98.4%
viability, T/C [3]: 112%
viability, T/C [4]: 101%
viability, T/C [5]: 65.6%
viability, T/C [6]: 2.39%
viability, T/C [7]: 93.3%
viability, T/C [8]: 99.7%
viability, T/C [9]: 91.5%
viability, T/C [10]: 103%
viability, T/C [11]: 67%
viability, T/C [12]: 2.81%
viability, T/C [13]: 99.1%
viability, T/C [14]: 109%
viability, T/C [15]: 92.1%
viability, T/C [16]: 101%
viability, T/C [17]: 63%
viability, T/C [18]: 2.11%
viability, T/C [19]: 99%
viability, T/C [20]: 99.8%
viability, T/C [21]: 95.9%
viability, T/C [22]: 85.3%
viability, T/C [23]: 61.9%
viability, T/C [24]: 1.48%
viability, T/C [25]: 86.7%
viability, T/C [26]: 84.7%
viability, T/C [27]: 87.8%
viability, T/C [28]: 84.3%
viability, T/C [29]: 52.7%
viability, T/C [30]: 1.87%
viability, T/C [31]: 78%
viability, T/C [32]: 80.7%
viability, T/C [33]: 75.8%
viability, T/C [34]: 71.2%
viability, T/C [35]: 52.4%
viability, T/C [36]: 1.28%

C[C@@H](NC(=O)c1ncnc(N)c1Cl)c1ncc(C(=O)Nc2cc(C(F)(F)F)c(Cl)cn2)s1 + CC(Nc1ccc2c(c1)OCCn1cc(N3C(=O)OCC3C(F)F)nc1-2)C(N)=O
pIC50 (second compound 0.00316 µM): < 5.00
pIC50 (second compound 0.01 µM): < 5.00
pIC50 (second compound 0.0316 µM): < 5.00
pIC50 (second compound 0.1 µM): < 5.00
pIC50 (second compound 0.316 µM): < 5.00
pIC50 (second compound 1 µM): 5.23
viability, T/C [1]: 110%
viability, T/C [2]: 102%
viability, T/C [3]: 105%
viability, T/C [4]: 91.2%
viability, T/C [5]: 96.8%
viability, T/C [6]: 84.6%
viability, T/C [7]: 110%
viability, T/C [8]: 109%
viability, T/C [9]: 98%
viability, T/C [10]: 89.6%
viability, T/C [11]: 95%
viability, T/C [12]: 75.4%
viability, T/C [13]: 101%
viability, T/C [14]: 105%
viability, T/C [15]: 92.2%
viability, T/C [16]: 99%
viability, T/C [17]: 82.4%
viability, T/C [18]: 73.1%
viability, T/C [19]: 97.6%
viability, T/C [20]: 97.1%
viability, T/C [21]: 92.1%
viability, T/C [22]: 88.7%
viability, T/C [23]: 89.1%
viability, T/C [24]: 59.9%
viability, T/C [25]: 97.9%
viability, T/C [26]: 86.8%
viability, T/C [27]: 75.9%
viability, T/C [28]: 78.2%
viability, T/C [29]: 70.5%
viability, T/C [30]: 47.2%
viability, T/C [31]: 77.9%
viability, T/C [32]: 80.2%
viability, T/C [33]: 73.5%
viability, T/C [34]: 66%
viability, T/C [35]: 61.4%
viability, T/C [36]: 41.5%
